Source: US20030003086A1, “Modulation of MHC class I antigen presentation” (priority 2001, published 2003)

Legend:
TOP [1] = molecular target: T1, TOP (Homo sapiens, UniProt P52888); assay: Generation of SIINFEKL+Kb complexes in Kb-Cos7 cells loaded with ovalbumin and TOP inhibitor by hypertonic lysis of pinosomes (25D1 staining, flow cytometry); format: cell-based; conditions: cells transfected with TOP
T1 construct: was introduced into pTracer-transfected Kb-Cos7 cells; endogenous in cells; host or cells: Kb-Cos7 cells transfected with pTracer (GFP) only
Text: (§1) To test whether TOP can influence antigen presentation, the effects of transiently overexpressing TOP in vivo on the presentation of SIINFEKL (SEQ ID NO:5) peptide produced in the cytoplasm from a synthetic minigene were studied. In one set of experiments, expression vectors encoding TOP and SIINFEKL were transiently co-transfected into Kbexpressing COS7 cells. The presentation of SIINFEKL on MHC class I Kb molecules was detected by staining with a SIlNFEKL+Kb-specific monoclonal antibody (25D1) (Porgador et al., 1997, Immunity. 6:715-726) and quantified by flow cytometry. Briefly, Kb-Cos7 cells were co-transfected with a SIINFEKL minigene in pCDNA3 and a pTracer plasmid encoding green fluorescence protein (GFP), GFP+human TOP or GFP+ORP 150 (a control protein) using FuGENE™ (Roche Applied Science). After 48 hours, the cells were stained with an anti-SIINFEKL+Kb specific nAb (25D1) (Porgador et al., 1997, supra) followed by pbycoerythrin-conjugated anti-immunoglobulin antibody and fluorescence was measured by flow fluorocytometry. […]
(§2) The data of FIG. 3C were generated in experiments in which ovalbumin (40 mg/ml) admixed with either the TOP inhibitor cPP-AAF-pAB (1 mM) or vehicle (DMSO) was introduced into pTracer-transfected Kb-Cos7 cells. After two hours the presence of SIINFEKL+Kb complexes was determined by immunofluorescence as described for FIG. 1A (supra). […]

TOP [2] = assay: as above; format: cell-based; conditions: Kb-Cos7 cells not overexpressing TOP; ovalbumin 40 mg/ml, inhibitor 1 mM, two hours; FIG. 3C
Text: as §1, §2

living cells = conditions: cited from earlier work
pure PSA = pure PSA (Homo sapiens, UniProt P55786); assay: Degradation of FAPGNYPAL by pure PSA; format: biochemical; conditions: PSA at concentrations similar to those found in HeLa cells
Chain of pure PSA (P55786 whole entry): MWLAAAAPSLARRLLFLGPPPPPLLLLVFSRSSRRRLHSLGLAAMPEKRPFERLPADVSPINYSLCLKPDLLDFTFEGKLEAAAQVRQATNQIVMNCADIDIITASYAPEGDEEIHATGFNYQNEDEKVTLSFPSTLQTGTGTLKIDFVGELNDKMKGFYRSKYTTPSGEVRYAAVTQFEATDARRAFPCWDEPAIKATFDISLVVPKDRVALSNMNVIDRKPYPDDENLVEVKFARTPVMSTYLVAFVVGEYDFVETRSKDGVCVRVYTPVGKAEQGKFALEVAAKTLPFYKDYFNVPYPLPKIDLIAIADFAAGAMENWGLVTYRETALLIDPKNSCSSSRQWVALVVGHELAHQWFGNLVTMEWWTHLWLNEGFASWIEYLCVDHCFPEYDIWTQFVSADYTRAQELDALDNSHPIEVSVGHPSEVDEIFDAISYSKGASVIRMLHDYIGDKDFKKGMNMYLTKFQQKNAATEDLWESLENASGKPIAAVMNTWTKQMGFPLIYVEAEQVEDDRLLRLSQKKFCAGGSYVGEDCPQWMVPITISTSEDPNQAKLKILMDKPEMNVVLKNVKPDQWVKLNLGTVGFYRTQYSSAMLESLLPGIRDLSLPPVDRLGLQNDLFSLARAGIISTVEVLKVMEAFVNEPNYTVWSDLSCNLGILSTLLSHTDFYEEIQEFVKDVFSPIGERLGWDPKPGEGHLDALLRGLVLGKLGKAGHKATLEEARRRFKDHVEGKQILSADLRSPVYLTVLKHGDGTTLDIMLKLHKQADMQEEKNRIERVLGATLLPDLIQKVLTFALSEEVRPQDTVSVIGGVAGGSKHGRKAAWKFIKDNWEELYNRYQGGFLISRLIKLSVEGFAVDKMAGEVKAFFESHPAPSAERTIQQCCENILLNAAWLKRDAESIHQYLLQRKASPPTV

T1 sequence (P52888 whole entry): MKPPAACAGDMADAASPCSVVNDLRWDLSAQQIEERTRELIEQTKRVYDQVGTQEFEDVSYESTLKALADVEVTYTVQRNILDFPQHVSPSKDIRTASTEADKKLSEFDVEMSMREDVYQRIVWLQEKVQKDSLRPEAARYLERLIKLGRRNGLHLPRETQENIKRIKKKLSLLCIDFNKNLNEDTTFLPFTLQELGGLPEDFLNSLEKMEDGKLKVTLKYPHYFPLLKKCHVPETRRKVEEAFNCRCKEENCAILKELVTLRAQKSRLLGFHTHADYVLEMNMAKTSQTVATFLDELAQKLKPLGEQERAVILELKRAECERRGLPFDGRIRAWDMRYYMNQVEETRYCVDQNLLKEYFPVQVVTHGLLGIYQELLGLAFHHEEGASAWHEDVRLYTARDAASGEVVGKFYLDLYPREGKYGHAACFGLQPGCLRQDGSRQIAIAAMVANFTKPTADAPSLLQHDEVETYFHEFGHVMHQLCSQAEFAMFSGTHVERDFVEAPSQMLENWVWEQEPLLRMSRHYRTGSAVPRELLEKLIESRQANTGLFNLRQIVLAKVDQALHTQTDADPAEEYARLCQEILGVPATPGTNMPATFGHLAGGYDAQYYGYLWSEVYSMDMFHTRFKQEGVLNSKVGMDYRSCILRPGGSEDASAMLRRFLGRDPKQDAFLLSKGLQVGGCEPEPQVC

Substance	generation of SIINFEKL-Kb complexes (MHC class I presentation) (TOP [1])	generation of SIINFEKL-Kb complexes (MHC class I presentation) (TOP [2])	entry into living cells / cell cytosol (living cells)	susceptibility to degradation by pure PSA (pure PSA)
N-(1(RS)-carboxy-3-phenylpropyl)-Ala-Ala-Tyr-p-aminobenzoate [cPP-AAF-PAB]	enhanced	enhanced	does not enter living cells	
FAPGNYPAL [antigenic peptide, Sendai Virus NP, residues 324-332]				particularly susceptible to degradation
